Experimental data as given in patent US20130012497A1, “METHODS FOR DETECTING ADHD SUSCEPTIBILITY AND […] AND LONG TERM OUTCOME OF ADHD SYMPTOMS” (The United States of America, as represented by the …, priority 2011, published 2013).

Tested on: ADHD symptoms
Assay: Treatment response to stimulant medication on the SWAN scale, by LPHN3-11q genotype
Format: in vivo, human
Settings: 82 individuals, US1 sample
Protocol: Eighty-two individuals with complete genotype and phenotype information were sampled from the original 240 trios in the US1 sample of Example 1. A comparative analyses regarding stimulant treatment was done as described in Arcos-Burgos et al., Mol. Psychiatry, 15(11): 1053-66 (2010). An analysis was performed to determine the relationship of SWAN scale (Strengths and Weaknesses of ADHD Symptoms and Normal Behavior scale) questions individually as well as inattentive and hyperactive combined dimensions (questions 1-9 indicate inattentive symptoms and questions 10-18 indicate hyperactive symptoms), prior to and after starting treatment with the stimulant methylphenidate.

## COC(=O)C(c1ccccc1)C1CCCCN1 (centres unmarked) [methylphenidate]
Individuals having AA at rs6551665 and fewer than two copies of the susceptibility haplotype on 11q
  response to stimulant medication treatment (SWAN scale): poor response
Individuals having GG at rs6551665 and two copies of the susceptibility haplotype on 11q
  change of symptoms after treatment with stimulant medication (SWAN scale question 18, hyperactive-impulsive dimension): significant improvement of symptoms
